In ChEMBL document CHEMBL1128798, “The in vitro cytotoxicity and DNA alkylating ability of the simplest functional analogues of the seco CC-1065 alkylating subunit” (Bioorg Med Chem Lett, 1995):

Columns and labels:
[1] = tested on: MM96L; experiment: Tested in vitro for cytotoxicity against MM96L cell line in human melanoma; assay type: functional
[2] = tested on: CI80-13S cell line; experiment: Tested in vitro for cytotoxicity against CI80-13S cell line in DNA cross-linking resistant human ovarian carcinoma; assay type: functional
[3] = tested on: B16; experiment: Tested in vitro for cytotoxicity against B16 cell line in murine melanoma; assay type: functional, Mus musculus
[4] = tested on: B16; experiment: Tested in vitro for cytotoxicity against B16 cell line in murine melanoma activity expressed in IC50; assay type: functional, cell-based; settings: Mus musculus
[5] = tested on: HeLa; experiment: Tested in vitro for cytotoxicity against He La cell line in human cervical carcinoma; assay type: functional
[6] = tested on: Nucleic Acid; experiment: Compound was tested in vitro for DNA alkylation intensity; value is given as; assay type: functional
[7] = tested on: MM418; experiment: Tested in vitro for cytotoxicity against MM418c15a cell line in human melanoma with high melanin content; assay type: functional

Compound: Oc1ccc(CCBr)cc1
- Cytotoxicity [1]: 16 µM
- Cytotoxicity [2]: 27 µM
- Cytotoxicity [3]: 44 µM
- IC50 [4]: 32 µM
- Cytotoxicity [5]: 18 µM
- DNA alkylation [6]: value is given as
- Cytotoxicity [7]: 25 µM

Compound: CS(C)(=O)=O [DIMETHYL SULFONE]
- Cytotoxicity [1]: 56 µM
- Cytotoxicity [2]: 59 µM
- Cytotoxicity [5]: 35 µM
- Cytotoxicity [7]: 58 µM

Compound: OCCc1ccc(O)cc1 [TYROSOL]
- Cytotoxicity [1]: 905 µM
- Cytotoxicity [5]: 1420 µM

Compound: Oc1cccc(CCBr)c1
- Cytotoxicity [1]: 60 µM
- Cytotoxicity [5]: 75 µM

Compound: Oc1cccc(CCI)c1
- Cytotoxicity [1]: 20 µM
- Cytotoxicity [5]: 19 µM

Compound: COc1ccc(CCI)cc1
- Cytotoxicity [1]: 25 µM
- Cytotoxicity [5]: 22 µM

Compound: COc1ccc(CCO)cc1
- Cytotoxicity [1]: 3330 µM
- Cytotoxicity [5]: 4420 µM

Compound: COc1ccc(CCCl)cc1
- Cytotoxicity [1]: 1970 µM
- Cytotoxicity [5]: 670 µM

Compound: COc1ccc(CCBr)cc1
- Cytotoxicity [1]: 520 µM
- Cytotoxicity [5]: 220 µM

Compound: OCCc1cccc(O)c1
- Cytotoxicity [1]: 2530 µM
- Cytotoxicity [5]: 7530 µM

Compound: Oc1ccc(CCI)cc1
- Cytotoxicity [1]: 43 µM
- Cytotoxicity [5]: 33 µM
- DNA alkylation [6]: value is given as

Compound: Oc1cccc(CCCl)c1
- Cytotoxicity [1]: 450 µM
- Cytotoxicity [5]: 450 µM

Compound: Oc1ccc(CCCl)cc1
- Cytotoxicity [1]: 42 µM
- Cytotoxicity [5]: 32 µM
